Measurements published in BindingDB's records for patent US20250352549 (Avelos Therapeutics, 2025).

target: T1, Serine/threonine-protein kinase greatwall (Human, UniProt Q96GX5); test: MASTL Activity Assay
T1 sequence (Q96GX5 whole entry): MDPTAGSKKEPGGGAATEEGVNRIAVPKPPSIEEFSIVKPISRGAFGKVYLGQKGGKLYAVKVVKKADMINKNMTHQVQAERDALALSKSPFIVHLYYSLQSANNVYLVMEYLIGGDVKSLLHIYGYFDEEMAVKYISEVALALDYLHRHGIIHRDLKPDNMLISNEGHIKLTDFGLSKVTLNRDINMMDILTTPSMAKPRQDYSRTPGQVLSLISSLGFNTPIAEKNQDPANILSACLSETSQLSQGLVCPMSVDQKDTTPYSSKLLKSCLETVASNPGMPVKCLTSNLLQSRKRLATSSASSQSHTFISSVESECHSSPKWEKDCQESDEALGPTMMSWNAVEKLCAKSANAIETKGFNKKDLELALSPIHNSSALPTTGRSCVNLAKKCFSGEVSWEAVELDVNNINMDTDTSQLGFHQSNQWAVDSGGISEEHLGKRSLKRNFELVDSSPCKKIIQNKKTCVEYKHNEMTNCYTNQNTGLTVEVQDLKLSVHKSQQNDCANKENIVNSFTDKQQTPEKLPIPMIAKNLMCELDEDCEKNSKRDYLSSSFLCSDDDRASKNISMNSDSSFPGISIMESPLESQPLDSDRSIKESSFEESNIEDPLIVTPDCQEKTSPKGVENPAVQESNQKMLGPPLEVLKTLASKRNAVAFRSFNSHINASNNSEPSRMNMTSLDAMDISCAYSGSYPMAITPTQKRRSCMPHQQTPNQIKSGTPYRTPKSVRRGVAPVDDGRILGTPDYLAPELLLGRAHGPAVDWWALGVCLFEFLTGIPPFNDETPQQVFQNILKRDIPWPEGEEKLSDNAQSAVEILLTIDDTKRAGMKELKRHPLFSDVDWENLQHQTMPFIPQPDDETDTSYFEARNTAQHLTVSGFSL
Protocol: Wild-type human active MASTL (154 pM) was incubated in assay buffer (50 mM HEPES, 100 mM NaCl, 0.1 mM EGTA, 10 mM MgCl2, 0.01% Tween-20, 0.5 mM TCEP, pH 7.5) with biotin tagged 40-mer ENSA peptide (10 nM), test compound and ATP (18 μM) for 60 minutes at room temperature. Test compounds were assayed using a 12-point dose range consisting of a 0, DMSO control and 10 sequential doses consisting from 0.0005, 0.002, 0.005, 0.014, 0.04, 0.12, 0.37, 1.11, 3.33 and 10 μM. The DMSO concentration was the same (1%) in all samples. An equal volume of detection buffer (assay buffer+267.5 pM Ab-K, 1.25 nM SA-D2, 20 mM EDTA and 400 mM KF) was added to stop the reaction to make a final volume of 20 μl, RT for 60 mins. Activity was measured using a plate reader (PerkinElmer EnSight) by the FRET signal generated between SA-D2 (streptavidin-D2) and Ab-K (anti-phospho-Serine 67 ENSA antibody (rabbit polyclonal, using standard techniques by a commercial supplier) conjugated to Cryptate). HTRF reagents (CisBio) were prepared as per the manufacturer recommendations. The 40-mer biotin-tagged ENSA peptide (synthesised by Bionics) used was based around Serine 67 on ENSA ([…]).

IC50	SMILES
< 500 nM	Cc1ncc2ccc(-c3cc(NC(Cc4cccc(F)c4F)C(=O)O)nc(N)n3)cn12 (stereo unspecified) [US20250352549, Example 144]
< 500 nM	Cc1n[nH]c2ccc(-c3nc(N)nc(NC(c4c[nH]c(C(F)(F)F)n4)C(C)C)n3)cc12 (stereo unspecified) [US20250352549, Example 35]
< 500 nM	Cc1ncc2ccc(-c3nc(N)nc(NCc4c[nH]c(C(F)(F)F)n4)n3)cn12 [US20250352549, Example 151]
< 500 nM	CC(C)C(Nc1nc(N)nc(-c2ccc3c(cnn3C)c2)n1)c1c[nH]c(C(F)(F)F)n1 (stereo unspecified) [US20250352549, Example 34]
< 500 nM	Cc1ncc2ccc(-c3nc(N)nc(NC(Cc4cccc(Cl)c4Cl)c4nc[nH]n4)n3)cn12 (stereo unspecified) [US20250352549, Example 22]
in the range around 750 nM	Cc1ncc2ccc(-c3nc(N)nc(N(C)C(c4cn(C)c(C(F)(F)F)n4)C(C)C)n3)cn12 (stereo unspecified) [US20250352549, Example 169]
< 500 nM	Cc1ncc2ccc(-c3cc(NC(c4c[nH]c(C(F)(F)F)n4)C(C)C)nc(N)n3)cn12 (stereo unspecified) [US20250352549, Example 150]
< 500 nM	[2H]C([2H])([2H])Nc1nc(NC(c2c[nH]c(C(F)(F)F)n2)C(C)C)nc(-c2ccc3cnn(C)c3c2)n1 (stereo unspecified) [US20250352549, Example 31]
< 500 nM	CC(C)C(Nc1nc(N)nc(-c2ccc3cn[nH]c3c2)n1)c1ccn(C(F)F)n1 (stereo unspecified) [US20250352549, Example 167]
< 500 nM	Cc1ncc2ccc(-c3nc(N)nc(NC(c4ccc(CN)cn4)C(C)C)n3)cn12 (stereo unspecified) [US20250352549, Example 178]
< 500 nM	Cc1ncc2ccc(-c3nc(N)nc(NC(c4cn(C)c(C(F)(F)F)n4)C(C)C)n3)cn12 (stereo unspecified) [US20250352549, Example 165]
< 500 nM	Nc1nc(NCCc2ccc(Cl)c(F)c2F)nc(-c2ccc3cnc(N)n3c2)n1 [US20250352549, Example 42]
< 500 nM	CC(C)C(Nc1nc(N)nc(-c2ccc3c(F)nn(C)c3c2)n1)c1c[nH]c(C(F)(F)F)n1 (stereo unspecified) [US20250352549, Example 45]
< 500 nM	CNc1nc(NC(Cc2cccc(Cl)c2Cl)C(=O)O)nc(-c2ccc3cnc(C)n3c2)n1 (stereo unspecified) [US20250352549, Example 138]
< 500 nM	Cc1ncc2ccc(-c3nc(N)nc(N(C)Cc4cccc(Cl)c4F)n3)cn12 [US20250352549, Example 163]
> 1000 nM	Cc1ncc2ncc(-c3nc(N)nc(NC(C)(C)c4ccn(C(F)F)n4)n3)cn12 [US20250352549, Example 13]
> 1000 nM	Cc1ncc2ccc(-c3nc(C#N)nc(NC(C)(C)c4ccn(C(F)F)n4)n3)cn12 [US20250352549, Example 12]
< 500 nM	[2H]C([2H])([2H])n1ncc2ccc(-c3nc(N)nc(NC(c4c[nH]c(C(F)(F)F)n4)C(C)C)n3)cc21 (stereo unspecified) [US20250352549, Example 28]
in the range around 750 nM	Cc1ncc2ccc(-c3nc(N)nc(NC(C)(C)c4nc(C(F)(F)F)no4)n3)cn12 [US20250352549, Example 160]
< 500 nM	[2H]C([2H])([2H])n1ncc2ccc(-c3nc(N)nc(NC(C)(C)Cc4cccc(F)n4)n3)cc21 [US20250352549, Example 36]
> 1000 nM	Cc1ncc2ccc(-c3nc(N)nc(NC(c4nnc(C(F)(F)F)o4)C(C)C)n3)cn12 (stereo unspecified) [US20250352549, Example 166]
< 500 nM	CNc1nc(NC(Cc2cccc(Cl)c2Cl)C(=O)O)cc(-c2ccc3cnc(C)n3c2)n1 (stereo unspecified) [US20250352549, Example 145]
< 500 nM	Cc1ncc2ccc(-c3nc(N)nc(N(C)Cc4c[nH]c(C(F)(F)F)n4)n3)cn12 [US20250352549, Example 164]
< 500 nM	[2H]C([2H])([2H])Nc1nc(NC(C)(C)c2ccn(C(F)F)n2)nc(-c2ccc3cnc(N)n3c2)n1 [US20250352549, Example 30]
in the range around 750 nM	Cc1ncc2ccc(-c3nc(N)nc(N(C)Cc4cccc(F)c4Cl)n3)cn12 [US20250352549, Example 162]
< 500 nM	Cc1ncc2ccc(-c3nc(N)nc(NC(C)(C)c4ccn(CCN)n4)n3)cn12 [US20250352549, Example 175]

IC50	SMILES
< 500 nM	Cc1ncc2ncc(-c3nc(N)nc(NC(C)(C)c4ccn(C(F)F)n4)n3)cn12 [US20250352549, Example 1]
> 1000 nM	Cc1ncc2ccc(-c3nc(N)nc(NC(c4ccc(C#N)cn4)C(C)C)n3)cn12 (stereo unspecified) [US20250352549, Example 168]
< 500 nM	CONC(=O)C(Cc1cccc(Cl)c1Cl)Nc1nc(N)nc(-c2ccc3cnc(C)n3c2)n1 (stereo unspecified) [US20250352549, Example 20]
< 500 nM	Cc1ncc2ccc(-c3cc(NCC(N)c4cccc(Cl)c4Cl)nc(N)n3)cn12 (stereo unspecified) [US20250352549, Example 16]
in the range around 750 nM	Cc1ncc2ccc(-c3nc(N)nc(N(C)C(c4c[nH]c(C(F)(F)F)n4)C(C)C)n3)cn12 (stereo unspecified) [US20250352549, Example 161]
< 500 nM	CC(=O)NC(CNc1cc(-c2ccc3cnc(C)n3c2)nc(N)n1)c1cccc(Cl)c1Cl (stereo unspecified) [US20250352549, Example 18]
in the range around 750 nM	CC(C)CC(Nc1nc(N)nc(-c2ccc3[nH]ncc3c2)n1)c1c[nH]c(C(F)(F)F)n1 (stereo unspecified) [US20250352549, Example 43]
< 500 nM	[2H]C([2H])([2H])n1ncc2ccc(-c3cc(NC(C)(C)Cn4ccc(C(F)(F)F)n4)nc(N)n3)cc21 [US20250352549, Example 40]
< 500 nM	CC(C)(Nc1nc(N)nc(-c2ccc3cnc(N)n3c2)n1)c1ccn(C(F)F)n1 [US20250352549, Example 10]
< 500 nM	Cn1ncc2ccc(-c3nc(N)nc(NC(C)(C)c4c[nH]c(C(F)(F)F)n4)n3)cc21 [US20250352549, Example 174]
< 500 nM	CC(C)C(Nc1nc(N)nc(-c2ccc3[nH]ncc3c2)n1)c1c[nH]c(C(F)(F)F)n1 (stereo unspecified) [US20250352549, Example 24]
< 500 nM	CC(=O)N(C)C(CNc1cc(-c2ccc3cnc(C)n3c2)nc(N)n1)c1cccc(Cl)c1Cl (stereo unspecified) [US20250352549, Example 19]
< 500 nM	CC(C)C(Nc1nc(N)nc(-c2ccc3cn[nH]c3c2)n1)c1c[nH]c(C(F)(F)F)n1 (stereo unspecified) [US20250352549, Example 156]
< 500 nM	CCC(Nc1nc(N)nc(-c2ccc3cn[nH]c3c2)n1)c1c[nH]c(C(F)(F)F)n1 (stereo unspecified) [US20250352549, Example 157]
< 500 nM	CC(C)(Cc1cccc(Cl)c1Cl)Nc1nc(N)nc(-c2ccc3cnc(N)n3c2)n1 [US20250352549, Example 41]
> 1000 nM	CC(C)(Nc1nc(N)nc(-c2ccc3cnc(O)n3c2)n1)c1ccn(C(F)F)n1 [US20250352549, Example 38]
< 500 nM	Cn1ncc2cc(-c3nc(N)nc(NC(C)(C)c4ccn(C(F)F)n4)n3)ccc21 [US20250352549, Example 48]
< 500 nM	Cc1nc(C)n2cc(-c3nc(N)nc(NC(c4c[nH]c(C(F)(F)F)n4)C(C)C)n3)ccc12 (stereo unspecified) [US20250352549, Example 181]
< 500 nM	Cc1ncc2ccc(-c3cc(NC(Cc4cccc(Cl)c4Cl)C(N)=O)nc(N)n3)cn12 (stereo unspecified) [US20250352549, Example 148]
< 500 nM	CCC(Nc1nc(N)nc(-c2ccc3[nH]ncc3c2)n1)c1c[nH]c(C(F)(F)F)n1 (stereo unspecified) [US20250352549, Example 8]
< 500 nM	COC(=O)C(Cc1cccc(Cl)c1Cl)Nc1cc(-c2ccc3cnc(C)n3c2)nc(N)n1 (stereo unspecified) [US20250352549, Example 3]
< 500 nM	CNc1nc(NC(c2ccn(C(F)F)n2)C(C)C)nc(-c2ccc3[nH]ncc3c2)n1 (stereo unspecified) [US20250352549, Example 27]
< 500 nM	CC(C)CC(Nc1nc(N)nc(-c2ccc3cn[nH]c3c2)n1)c1c[nH]c(C(F)(F)F)n1 (stereo unspecified) [US20250352549, Example 179]
> 1000 nM	Cc1ncc2ccc(-c3nc(N)nc(NC(Cc4cccc(Cl)c4Cl)c4ncno4)n3)cn12 (stereo unspecified) [US20250352549, Example 23]
> 1000 nM	Cc1ncc2ccc(-c3nc(C#N)nc(NC(Cc4cccc(Cl)c4Cl)C(=O)O)n3)cn12 (stereo unspecified) [US20250352549, Example 15]
